Legend:
[1] = molecular target: hmGlu4 (Homo sapiens, UniProt Q14833); assay: mGlu4 counter-screen; type: cell-based; details: selectivity mGlu1 versus mGlu4
[2] = molecular target: hmGlu1 (Homo sapiens, UniProt Q13255); assay: Calcium mobilization mGlu1 assay; type: cell-based; details: for mGlu1 pEC50 (±SEM) / hmGlu1 EC50: calcium mobilization; for mGlu1 pEC50 (±SEM): n=3; for hmGlu1 EC50: average of n=3 in triplicate
[3] = Rat iv PK; type: in vivo; details: rat iv clearance versus rat microsomal prediction

hmGlu4, sequence (Q14833 33-912): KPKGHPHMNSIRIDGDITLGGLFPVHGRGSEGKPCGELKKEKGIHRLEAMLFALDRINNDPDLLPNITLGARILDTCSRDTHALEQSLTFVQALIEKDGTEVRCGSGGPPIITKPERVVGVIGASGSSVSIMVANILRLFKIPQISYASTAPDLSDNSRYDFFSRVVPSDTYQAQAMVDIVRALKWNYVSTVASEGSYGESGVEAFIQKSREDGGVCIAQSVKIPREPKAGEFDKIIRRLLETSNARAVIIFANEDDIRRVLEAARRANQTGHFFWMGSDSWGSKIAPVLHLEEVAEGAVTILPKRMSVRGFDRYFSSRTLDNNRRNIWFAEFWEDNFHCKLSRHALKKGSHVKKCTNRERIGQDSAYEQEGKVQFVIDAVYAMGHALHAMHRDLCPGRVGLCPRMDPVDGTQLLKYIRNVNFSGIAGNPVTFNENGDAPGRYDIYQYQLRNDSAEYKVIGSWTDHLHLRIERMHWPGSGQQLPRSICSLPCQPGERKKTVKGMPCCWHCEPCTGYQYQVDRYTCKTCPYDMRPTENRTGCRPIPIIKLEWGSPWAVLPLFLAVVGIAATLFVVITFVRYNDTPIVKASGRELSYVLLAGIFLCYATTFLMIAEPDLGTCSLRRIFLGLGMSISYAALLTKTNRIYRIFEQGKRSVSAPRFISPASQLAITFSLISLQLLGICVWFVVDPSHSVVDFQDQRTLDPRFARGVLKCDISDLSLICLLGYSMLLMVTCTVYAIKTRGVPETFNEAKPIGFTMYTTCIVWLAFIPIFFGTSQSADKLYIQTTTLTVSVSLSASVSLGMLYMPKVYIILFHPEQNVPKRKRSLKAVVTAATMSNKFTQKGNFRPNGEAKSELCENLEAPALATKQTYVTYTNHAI
hmGlu1, sequence (Q13255 19-1194): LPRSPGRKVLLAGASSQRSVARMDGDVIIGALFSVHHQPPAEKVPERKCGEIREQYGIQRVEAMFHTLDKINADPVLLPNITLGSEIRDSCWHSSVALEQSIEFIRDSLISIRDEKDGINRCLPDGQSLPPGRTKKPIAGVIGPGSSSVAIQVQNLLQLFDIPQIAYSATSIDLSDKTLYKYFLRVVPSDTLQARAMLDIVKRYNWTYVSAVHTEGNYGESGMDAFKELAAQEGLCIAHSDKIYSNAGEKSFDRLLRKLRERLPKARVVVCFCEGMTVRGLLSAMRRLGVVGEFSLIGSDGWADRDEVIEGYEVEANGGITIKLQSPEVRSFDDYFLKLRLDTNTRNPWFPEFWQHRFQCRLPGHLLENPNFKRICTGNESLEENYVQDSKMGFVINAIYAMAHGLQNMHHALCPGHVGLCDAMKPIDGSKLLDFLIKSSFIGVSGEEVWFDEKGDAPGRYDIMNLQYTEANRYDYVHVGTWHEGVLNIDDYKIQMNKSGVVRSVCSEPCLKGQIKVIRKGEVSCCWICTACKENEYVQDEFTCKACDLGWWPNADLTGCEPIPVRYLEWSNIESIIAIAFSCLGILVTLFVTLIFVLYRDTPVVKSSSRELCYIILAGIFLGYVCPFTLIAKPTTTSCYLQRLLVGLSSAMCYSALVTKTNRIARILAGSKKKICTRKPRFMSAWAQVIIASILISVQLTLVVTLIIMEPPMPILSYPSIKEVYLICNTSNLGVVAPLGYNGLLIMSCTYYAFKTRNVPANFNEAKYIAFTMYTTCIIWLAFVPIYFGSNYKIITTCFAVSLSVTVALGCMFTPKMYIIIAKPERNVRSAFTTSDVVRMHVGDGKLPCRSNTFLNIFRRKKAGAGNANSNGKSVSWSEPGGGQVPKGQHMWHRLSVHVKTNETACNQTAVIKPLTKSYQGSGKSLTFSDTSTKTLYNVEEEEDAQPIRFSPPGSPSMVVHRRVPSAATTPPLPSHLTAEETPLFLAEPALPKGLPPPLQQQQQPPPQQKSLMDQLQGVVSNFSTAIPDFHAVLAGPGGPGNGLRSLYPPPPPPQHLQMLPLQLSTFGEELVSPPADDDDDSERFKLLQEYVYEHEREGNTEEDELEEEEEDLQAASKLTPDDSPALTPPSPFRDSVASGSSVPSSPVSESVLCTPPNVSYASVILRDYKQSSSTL

Row | mGlu1 pEC50 (±SEM) [2] | SMILES | further results
1 | – | Cc1scnc1C(=O)Nc1ccc(N2C(=O)c3cccnc3C2=O)c(Cl)c1 [11n] | Fold versus mGlu4 [1]: >52 fold
2 | >5 | Cc1ncsc1C(=O)Nc1ccc(N2C(=O)c3ccccc3C2=O)c(Cl)c1 [10h] | –
3 | 7.38±0.11 | Cc1ccc2c(c1)C(=O)N(c1ccc(NC(=O)c3ncoc3C)cc1Cl)C2=O [11a] | –
4 | 5.72±0.27 | Cc1ccsc1C(=O)Nc1ccc(N2C(=O)c3ccccc3C2=O)c(Cl)c1 [10d] | EC50 [2]: 1500 to 1800 nM
5 | >5 | Cc1cccc2c1C(=O)N(c1ccc(NC(=O)c3nccn3C)cc1Cl)C2=O [11p] | –
6 | 5.86±0.28 | Cc1scnc1C(=O)Nc1ccc(N2C(=O)c3cccc(Cl)c3C2=O)c(Cl)c1 [11k] | Fold versus mGlu4 [1]: >7.3 fold
7 | 8.27±0.02 | Cc1ccoc1C(=O)Nc1ccc(N2C(=O)c3ccc(Cl)cc3C2=O)cc1F [13c] | –
8 | 5.36±0.22 | Cc1cn[nH]c1C(=O)Nc1ccc(N2C(=O)c3cccc(C)c3C2=O)c(Cl)c1 [11w] | Fold versus mGlu4 [1]: >2 fold
9 | >5 | Cn1ccnc1C(=O)Nc1ccc(N2C(=O)c3cccc(Cl)c3C2=O)c(Cl)c1 [11r] | –
10 | >5 | CN1CCC[C@@H]1C(=O)Nc1ccc(N2C(=O)c3ccccc3C2=O)c(Cl)c1 [10l] | hmGlu1 EC50 [2]: inactive
11 | 6.25±0.16 | Cc1ccc2c(c1)C(=O)N(c1ccc(NC(=O)c3[nH]ncc3C)cc1Cl)C2=O [11v] | –
12 | – | Cc1cn[nH]c1C(=O)Nc1ccc(N2C(=O)c3cccc(F)c3C2=O)c(Cl)c1 [11aa] | Fold versus mGlu4 [1]: >16 fold
13 | 7.65±0.07 | Cc1ccoc1C(=O)Nc1ccc(N2C(=O)c3cccc(F)c3C2=O)cc1F [13e] | –
14 | – | Cc1ccoc1C(=O)Nc1ccc(N2C(=O)c3cccc(C)c3C2=O)cc1F [13b] | in vivo clearance lower than the in vitro predicted value [3]: 4 times
15 | >5 | Cn1ccnc1C(=O)Nc1ccc(N2C(=O)c3cccc(F)c3C2=O)c(Cl)c1 [11t] | –
16 | 5.83±0.02 | Cc1ocnc1C(=O)Nc1ccc(N2C(=O)c3ccccc3C2=O)c(Cl)c1 [10g] | –
17 | 7.26±0.13 | Cc1ocnc1C(=O)Nc1ccc(N2C(=O)c3ccc(Cl)cc3C2=O)c(Cl)c1 [11c] | –
18 | – | Cc1ccc2c(c1)C(=O)N(c1ccc(NC(=O)c3occc3C)c(F)c1)C2=O [13a] | in vivo clearance lower than the in vitro predicted value [3]: 8 times
19 | 6.60±0.20 | Cc1ccc2c(c1)C(=O)N(c1ccc(NC(=O)c3nccn3C)cc1Cl)C2=O [11o] | –
20 | 7.30±0.15 | Cc1scnc1C(=O)Nc1ccc(N2C(=O)c3ccc(Cl)cc3C2=O)c(Cl)c1 [11j] | –
21 | 5.91±0.21 | Cc1cn[nH]c1C(=O)Nc1ccc(N2C(=O)c3ccccc3C2=O)c(Cl)c1 [10k] | –
22 | >5 | CN1CCC[C@H]1C(=O)Nc1ccc(N2C(=O)c3ccccc3C2=O)c(Cl)c1 [10m] | hmGlu1 EC50 [2]: inactive
23 | 6.64±0.14 | Cc1cccc2c1C(=O)N(c1ccc(NC(=O)c3ncsc3C)cc1Cl)C2=O [11i] | –
24 | >5 | Cc1[nH]ccc1C(=O)Nc1ccc(N2C(=O)c3ccccc3C2=O)c(Cl)c1 [10b] | –
25 | >5 | Cn1ccnc1C(=O)Nc1ccc(N2C(=O)c3cccnc3C2=O)c(Cl)c1 [11u] | –
26 | – | Cc1scnc1C(=O)Nc1ccc(N2C(=O)c3ccccc3C2=O)c(Cl)c1 [10i] | potency increase relative to the unsubstituted thiazole ([2]; effect of a single methyl group): ~200 fold
27 | >5 | Cc1cn[nH]c1C(=O)Nc1ccc(N2C(=O)c3cccc(Cl)c3C2=O)c(Cl)c1 [11y] | –
28 | 7.71±0.06 | Cc1ccoc1C(=O)Nc1ccc(N2C(=O)c3ccc(F)cc3C2=O)cc1F [13d] | –
29 | >5 | Cc1ncoc1C(=O)Nc1ccc(N2C(=O)c3ccccc3C2=O)c(Cl)c1 [10f] | –
30 | 6.58±0.13 | Cn1ccnc1C(=O)Nc1ccc(N2C(=O)c3ccc(Cl)cc3C2=O)c(Cl)c1 [11q] | –

Source: paper PMC4794757 (Bioorganic & medicinal chemistry letters, 2016)
